# According to patent US10993916B2, “Crystalline microparticles of a beta-agonist coated with a fatty acid” (Chiesi Farmaceutici S.p.A., priority 2011, dated 2021):
# Tests used:
# Assay type in all cases: physicochemical
# [1] = Aerosol performances of the pMDI formulations of salmeterol xinafoate microparticles (Next Generation Impactor); conditions: pMDI suspension in HFA134a, FEP-coated canisters, nominal dose 25 μg, mean±S.D.
# Method: (§1) The pMDI formulations were also characterized in terms of aerosol performances. They were assessed using a Next Generation Impactor to according to the procedure described in the European Pharmacopoeia 7th edition, 2011, part 2.9.18.
# (§2) Quantification of formoterol fumarate dihydrate (FF) was performed using a HPLC method. The following parameters were determined: • i) delivered dose (DD) is calculated from the cumulative deposition in the […], divided by the number of actuations per experiment; • ii) fine particle mass (FPM) is obtained by interpolation of the cumulative percentage undersize of drug mass deposition versus cut off diameter. The FPM corresponds to particles of diameter ≤5.0 microns, divided by the number of actuations per experiment. • iii) respirable fraction (fine particle fraction=FPF) which is the percent ratio between the fine particle mass and the delivered dose. • iv) mass median aerodynamic diameter (MMAD) which is the diameter around which the mass aerodynamic diameters of the emitted particles are distributed equally;
# To prepare pMDI aerosol suspension formulations with a nominal dose of the active ingredient of 25 μg, canisters coated with FEP were filled in a controlled atmosphere room, by successively introducing 3.0 mg the microparticles of Example 5 and then 6 ml pressurized HFA134a gas. The devices were fitted with a 50 μl APTAR valve and a Bespak actuator of 0.3 mm. For comparative purposes, a pMDI aerosol suspension formulations comprising micronized salmeterol xinafoate was also prepared. The pMDI formulations were characterized in terms of aerosol performances. They were assessed as described in Example 3.
# [2] = Aerosol performances of the pMDI formulations of formoterol fumarate microparticles (Next Generation Impactor); conditions: pMDI suspension in HFA134a, nominal dose 12 μg, mean±S.D.
# Method: To prepare pMDI aerosol suspension formulations with a nominal dose of the active ingredient of 12 μg, the aluminum canisters were filled in a controlled atmosphere room, by successively introducing 2.4 mg the microparticles of Example 1 and then 10 ml pressurized HFA134a gas. The devices were fitted with a 50 μl APTAR valve and a Bespak actuator of 0.3 mm. For comparative purposes, a pMDI aerosol suspension formulations comprising micronized formoterol fumarate dihydrate was also prepared. The sedimentation rate was determined using a Turbiscan apparatus (Formulaction SA, France).
# as §1, §2
# [3] = Aerosol performances of the powder formulations (Next Generation Impactor, RS01/7 inhaler); conditions: dry powder with alpha-lactose monohydrate carrier, 6 μg drug to 10 mg carrier, mean±S.D.
# Method: To prepare powder formulations, the microparticles of Example 1 FF-myr 0.5 and Ff-myr 2.0 were mixed in a Turbula mixer with alpha-lactose monohydrate having a mass diameter comprised between 90 and 150 μm as a carrier, to obtain a ratio of 6 μg of drug to 10 mg of carrier. […] Each powder was filled in hard HMPC gelatine capsules, in turn loaded in a RS01/7 unit dose inhaler (Plastiape, Italy).
# The aerosol performances were evaluated using a Next Generation Impactor (NGI) according to the procedure described in European Pharmacopoeia 7th edition, 2011, part 2.9.18, pages 281-285. The results (mean±S.D.) in terms of delivered dose (DD), fine particle mass (FPM), fine particle fraction (FPF) and mass median aerodynamic diameter (MMAD), are reported in Table 3.
Compound,DD (delivered dose) [1],FPF (fine particle fraction) [1],FPM (fine particle mass) [1],MMAD (mass median aerodynamic diameter) [1],DD (delivered dose) [2],"FPF (fine particle fraction, respirable fraction) [2]","FPM (fine particle mass, ≤5.0 microns) [2]",MMAD (mass median aerodynamic diameter) [2],DD (delivered dose) [3],FPF (fine particle fraction) [3],FPM (fine particle mass) [3],MMAD (mass median aerodynamic diameter) [3]
"OCc1cc(C(O)CNCCCCCCOCCCCc2ccccc2)ccc1O (stereo not drawn) [SX raw, salmeterol xinafoate]",14.28 ± 1.72 µg,29.74 ± 1.75%,4.23 ± 0.25 µg,2.79 ± 0.39 μm,–,–,–,–,–,–,–,–
"COc1ccc(CC(C)NCC(O)c2ccc(O)c(NC=O)c2)cc1.COc1ccc(CC(C)NCC(O)c2ccc(O)c(NC=O)c2)cc1.O.O.O=C(O)/C=C/C(=O)O (stereo not drawn) [FF raw material, formoterol fumarate dihydrate]",–,–,–,–,8.34 ± 0.32 µg,81.9 ± 2.9%,6.84 ± 0.51 µg,1.92 ± 0.00 μm,73 ± 0.02 µg,14.03 ± 0.82%,0.71 ± 0.04 µg,2.36 ± 0.05 μm
